Values after ≈ are worked out from the molar mass of the structure shown. Values joined by “and” are separate entries in the source; they are usually repeats but may differ in a detail not shown here. Identical values can stand only once. Like-named read-outs stand apart in the source and are kept apart here.
What was measured:
S. aureus ATCC 29213 = test: microbe, parasite or virus in culture; conditions: for MIC: Staphylococcus aureus, ATCC29213; for RO7223280 MIC 100%: S. aureus ATCC 29213, read at 100%
Method: MIC determinations were performed using the broth microdilution method and in line with CLSI guidelines M07 and M100 (refs. [37],[38]). Bacterial inocula were prepared by diluting a 0.5 McFarland suspension in CAMHB or lysogeny broth (LB) specifically for A. baylyi isolates. […] MIC values of all of the tested antibiotics were read as the lowest compound concentration inhibiting bacterial growth by naked eye or beyond which the OD600 ceased to decrease.

CYP2C9 = CYP2C9 (Homo sapiens, UniProt P11712); test: CYP inhibition; assay type: in vitro ADME
CYP2C9, sequence (P11712 whole entry): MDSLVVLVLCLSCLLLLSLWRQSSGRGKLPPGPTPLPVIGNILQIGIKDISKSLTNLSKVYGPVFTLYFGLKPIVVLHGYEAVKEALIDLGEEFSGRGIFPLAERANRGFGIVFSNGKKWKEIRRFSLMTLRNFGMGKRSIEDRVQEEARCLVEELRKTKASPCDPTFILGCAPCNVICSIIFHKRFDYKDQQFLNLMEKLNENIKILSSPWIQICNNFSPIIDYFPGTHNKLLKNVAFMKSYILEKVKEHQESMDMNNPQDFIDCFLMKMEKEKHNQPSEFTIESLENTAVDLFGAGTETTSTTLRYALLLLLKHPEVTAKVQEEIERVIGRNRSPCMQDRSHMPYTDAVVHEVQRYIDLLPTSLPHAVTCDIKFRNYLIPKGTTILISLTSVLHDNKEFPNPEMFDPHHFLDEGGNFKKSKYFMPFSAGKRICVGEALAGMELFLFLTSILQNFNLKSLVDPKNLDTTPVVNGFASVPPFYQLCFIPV

CYP2D6 = CYP2D6 (Homo sapiens, UniProt P10635); test: CYP inhibition; assay type: in vitro ADME
CYP2D6, sequence (P10635 whole entry): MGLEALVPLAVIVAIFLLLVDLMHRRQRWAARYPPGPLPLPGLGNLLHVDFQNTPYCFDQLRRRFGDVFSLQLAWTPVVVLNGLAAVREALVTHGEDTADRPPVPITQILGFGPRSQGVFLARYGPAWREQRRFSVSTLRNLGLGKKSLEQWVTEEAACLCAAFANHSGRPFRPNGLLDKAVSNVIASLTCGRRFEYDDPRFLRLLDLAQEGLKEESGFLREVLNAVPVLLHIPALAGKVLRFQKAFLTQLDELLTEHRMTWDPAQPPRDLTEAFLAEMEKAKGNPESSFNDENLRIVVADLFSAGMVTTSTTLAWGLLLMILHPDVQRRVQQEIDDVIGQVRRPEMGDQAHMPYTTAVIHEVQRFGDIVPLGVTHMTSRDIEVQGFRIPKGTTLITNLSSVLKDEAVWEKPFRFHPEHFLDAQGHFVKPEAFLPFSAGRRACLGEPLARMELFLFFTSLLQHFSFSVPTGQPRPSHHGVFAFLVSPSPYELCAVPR

[1] = Fraction unbound in mouse plasma; assay type: in vitro ADME
[2] = Rat plasma precipitation assay; conditions: for Threshold concentration for precipitation: Wistar rat heparin plasma 1:1 with compound in saline/PBS, absorbance difference OD362 ≥ 0.05, n = 1
Method: Whole blood was obtained from WISTAR rats and collected in 1.2 ml heparin tubes for the preparation of heparin plasma. The tubes were then centrifuged for 5 min at 5,200g at room temperature to isolate the plasma supernatant. Test compounds were received as powder and solubilized at various concentrations in 0.9% aqueous sodium chloride solution and adjusted for pH with phosphate-buffered saline (PBS). The assay was conducted in 384-well plates. Rat plasma (10 µl) was added to 10 µl of the various compound solutions. A total of 10 µl of vehicle (0.9% aqueous sodium chloride solution, PBS) added to the plasma was used as a negative control. The absorption was measured at 362 nm. Raw data were obtained as absorbance data. The difference between the absorbance of the sample and the mean absorbance of the vehicle was calculated. The minimum effect concentration was defined as the lowest concentration giving an absorbance difference of OD362 ≥ 0.05.

5HT2A = target: T1, 5HT2A (Homo sapiens, UniProt P28223); test: Off-target screening (CEREP); assay type: binding; conditions: read-out: percent inhibition
T1 construct: purchased Eurofins CEREP SA
T1 sequence (P28223 whole entry): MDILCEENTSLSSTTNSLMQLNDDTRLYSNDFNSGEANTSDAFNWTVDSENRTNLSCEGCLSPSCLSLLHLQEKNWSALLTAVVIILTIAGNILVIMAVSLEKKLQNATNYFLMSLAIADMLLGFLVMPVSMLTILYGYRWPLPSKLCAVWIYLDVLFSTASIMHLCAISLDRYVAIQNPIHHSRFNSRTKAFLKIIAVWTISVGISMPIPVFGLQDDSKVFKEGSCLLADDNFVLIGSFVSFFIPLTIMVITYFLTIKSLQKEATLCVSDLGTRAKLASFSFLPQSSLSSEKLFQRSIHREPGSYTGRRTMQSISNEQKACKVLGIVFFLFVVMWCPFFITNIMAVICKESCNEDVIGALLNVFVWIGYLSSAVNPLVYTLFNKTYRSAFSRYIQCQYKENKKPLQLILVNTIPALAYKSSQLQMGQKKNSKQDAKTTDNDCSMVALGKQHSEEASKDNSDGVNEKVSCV
Method: (§1) Supplementary Table 1 │ Off-target activity screening f or MCP compou nds […]
(§2) The assays given in the table above were conducted at Eurofins CEREP S A (Celle-Lévescault, France) and were run as single point measurements in duplicates in the presence of 10 µ M of the test compound and reported as percent inhibition of the radioligand signal or control enzymatic activity. n.d., not

Dopamine D2 receptor = target: T2, Dopamine D2 receptor (Homo sapiens, UniProt P14416); test: Off-target screening (CEREP); assay type: binding; conditions: read-out: percent inhibition
T2 construct: purchased Eurofins CEREP SA
T2 sequence (P14416 whole entry): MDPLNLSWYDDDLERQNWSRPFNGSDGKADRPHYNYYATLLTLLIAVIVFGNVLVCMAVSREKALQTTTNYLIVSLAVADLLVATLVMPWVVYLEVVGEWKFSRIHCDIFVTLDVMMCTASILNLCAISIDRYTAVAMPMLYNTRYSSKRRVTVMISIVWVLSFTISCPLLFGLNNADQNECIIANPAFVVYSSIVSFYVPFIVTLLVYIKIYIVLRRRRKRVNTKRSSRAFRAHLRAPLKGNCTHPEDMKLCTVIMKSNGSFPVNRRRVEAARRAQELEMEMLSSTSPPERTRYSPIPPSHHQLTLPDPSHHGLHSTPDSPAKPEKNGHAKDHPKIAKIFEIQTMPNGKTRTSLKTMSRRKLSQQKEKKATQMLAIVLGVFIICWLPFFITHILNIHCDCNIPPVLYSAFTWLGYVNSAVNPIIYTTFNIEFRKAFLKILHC
Method: as §1, §2

[3] = target: Glycine receptor, strychnine insensitive (Rattus norvegicus, UniProt P35439); test: Off-target screening (CEREP); assay type: binding; conditions: read-out: percent inhibition
Glycine receptor, strychnine insensitive, sequence (P35439 394-800): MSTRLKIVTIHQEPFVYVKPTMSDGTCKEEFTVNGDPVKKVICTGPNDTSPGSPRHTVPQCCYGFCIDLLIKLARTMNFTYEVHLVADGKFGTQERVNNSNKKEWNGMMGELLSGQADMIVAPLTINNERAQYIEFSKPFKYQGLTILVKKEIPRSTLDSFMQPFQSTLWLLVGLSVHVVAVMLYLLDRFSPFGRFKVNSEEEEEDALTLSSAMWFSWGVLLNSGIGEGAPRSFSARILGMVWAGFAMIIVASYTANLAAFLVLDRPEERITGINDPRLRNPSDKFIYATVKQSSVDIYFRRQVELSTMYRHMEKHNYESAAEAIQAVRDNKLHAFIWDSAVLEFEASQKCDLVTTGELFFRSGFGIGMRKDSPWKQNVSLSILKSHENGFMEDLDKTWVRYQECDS
Method: as §1, §2

Muscarinic receptor M1 = target: T3, Muscarinic receptor M1 (Homo sapiens, UniProt P11229); test: Off-target screening (CEREP); assay type: binding; conditions: read-out: percent inhibition
T3 construct: purchased Eurofins CEREP SA
T3 sequence (P11229 1-460): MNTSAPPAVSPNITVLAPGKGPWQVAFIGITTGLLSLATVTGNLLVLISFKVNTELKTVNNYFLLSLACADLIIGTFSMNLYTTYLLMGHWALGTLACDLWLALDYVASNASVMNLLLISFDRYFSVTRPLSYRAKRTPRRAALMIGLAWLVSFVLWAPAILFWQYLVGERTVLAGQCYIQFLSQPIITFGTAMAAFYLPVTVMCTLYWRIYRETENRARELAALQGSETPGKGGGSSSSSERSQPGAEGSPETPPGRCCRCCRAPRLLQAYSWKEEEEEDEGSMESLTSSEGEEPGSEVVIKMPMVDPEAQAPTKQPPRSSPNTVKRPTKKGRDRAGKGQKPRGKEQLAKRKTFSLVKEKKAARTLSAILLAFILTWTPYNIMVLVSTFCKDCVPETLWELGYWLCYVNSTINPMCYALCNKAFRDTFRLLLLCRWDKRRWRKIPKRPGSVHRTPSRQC
Method: as §1, §2

Xanthine oxidase = target: T4, Xanthine oxidase (Bos taurus, UniProt P80457); test: Off-target screening (CEREP); assay type: biochemical, bovine; conditions: read-out: percent inhibition
T4 construct: purchased Eurofins CEREP SA
T4 sequence (P80457 whole entry): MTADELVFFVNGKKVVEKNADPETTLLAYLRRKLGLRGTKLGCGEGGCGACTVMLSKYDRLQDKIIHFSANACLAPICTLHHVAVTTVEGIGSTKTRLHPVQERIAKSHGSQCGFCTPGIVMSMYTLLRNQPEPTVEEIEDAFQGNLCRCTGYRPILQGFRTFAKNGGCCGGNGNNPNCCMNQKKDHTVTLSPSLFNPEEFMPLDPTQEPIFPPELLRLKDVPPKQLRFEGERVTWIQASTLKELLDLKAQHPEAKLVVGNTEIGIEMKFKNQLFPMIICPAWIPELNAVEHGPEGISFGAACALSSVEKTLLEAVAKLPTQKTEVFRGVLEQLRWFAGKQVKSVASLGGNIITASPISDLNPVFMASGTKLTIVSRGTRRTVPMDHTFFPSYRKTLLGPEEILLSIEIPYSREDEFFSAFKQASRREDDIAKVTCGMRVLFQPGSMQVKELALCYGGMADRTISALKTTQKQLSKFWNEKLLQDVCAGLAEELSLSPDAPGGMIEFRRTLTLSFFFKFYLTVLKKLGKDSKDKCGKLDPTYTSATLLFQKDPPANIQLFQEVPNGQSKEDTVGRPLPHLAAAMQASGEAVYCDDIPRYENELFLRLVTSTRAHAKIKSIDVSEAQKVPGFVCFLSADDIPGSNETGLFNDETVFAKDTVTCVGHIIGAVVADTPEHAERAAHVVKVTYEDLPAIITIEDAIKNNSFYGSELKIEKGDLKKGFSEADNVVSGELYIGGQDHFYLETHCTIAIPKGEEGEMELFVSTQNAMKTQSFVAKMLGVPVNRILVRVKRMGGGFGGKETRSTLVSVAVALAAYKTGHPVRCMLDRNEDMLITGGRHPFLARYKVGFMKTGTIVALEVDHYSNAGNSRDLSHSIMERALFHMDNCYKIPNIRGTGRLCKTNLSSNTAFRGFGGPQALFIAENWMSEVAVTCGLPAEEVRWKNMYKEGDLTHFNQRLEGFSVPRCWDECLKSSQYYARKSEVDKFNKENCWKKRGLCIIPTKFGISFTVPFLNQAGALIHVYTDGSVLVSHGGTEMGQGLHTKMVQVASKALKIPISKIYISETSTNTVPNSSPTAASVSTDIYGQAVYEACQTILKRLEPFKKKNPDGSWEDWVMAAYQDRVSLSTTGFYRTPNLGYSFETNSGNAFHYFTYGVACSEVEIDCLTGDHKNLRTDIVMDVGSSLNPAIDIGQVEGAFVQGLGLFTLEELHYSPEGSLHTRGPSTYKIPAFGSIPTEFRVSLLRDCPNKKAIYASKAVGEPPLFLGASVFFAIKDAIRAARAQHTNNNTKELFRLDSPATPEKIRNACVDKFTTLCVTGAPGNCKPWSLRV
Method: as §1, §2

C. albicans ATCC 90028 = conditions: for RO7223280 MIC 100%: C. albicans ATCC 90028, read at 100%

CN1C(=O)[C@H](CCCCN)NC(=O)[C@H](CCCN)NCc2cccnc2Sc2c(Cl)ccc(Cl)c2CNC(=O)[C@@H]1Cc1c[nH]c2ccccc12 [RO7075573]
MIC (S. aureus ATCC 29213): > 64 µg/mL | MIC 100% (S. aureus ATCC 29213; Study LGC281440): >64 µg/mL | MIC 100% (S. aureus ATCC 29213; Study LGC282160): >64 µg/mL | MIC 100% (S. aureus ATCC 29213; Study LGC284879): >64 µg/mL | MIC 100% (S. aureus ATCC 29213; Study LGC285582): >64 µg/mL | MIC 100% (S. aureus ATCC 29213; Study LGC286210): 64 µg/mL (≈ 86.5 µM) | MIC 100% (S. aureus ATCC 29213; Study LGC293598): >64 µg/mL | MIC 100% (S. aureus ATCC 29213; Study LGC294355): >64 µg/mL | MIC 100% (S. aureus ATCC 29213; Study LGC295147): 64 µg/mL (≈ 86.5 µM) | MIC 100% (S. aureus ATCC 29213; Study LGC296813): >64 µg/mL | MIC 100% (S. aureus ATCC 29213; Study LGC299544): 64 µg/mL (≈ 86.5 µM) | MIC 100% (S. aureus ATCC 29213; Study LGC301026): >64 µg/mL | MIC 100% (S. aureus ATCC 29213; Study LGC308175): >64 µg/mL | MIC 100% (S. aureus ATCC 29213; Study ROC010): 32 µg/mL (≈ 43.3 µM) | MIC 100% (S. aureus ATCC 29213; Study ROC012): 32 µg/mL (≈ 43.3 µM) | MNT (Micronucleus test (MNT)): Negative | CYP inh. (2C9) (CYP2C9): > 50 µM | CYP inh. (2D6) (CYP2D6): > 50 µM | fu (m), fraction unbound in mouse plasma [1]: 17% | Threshold concentration for precipitation [2]: 0.038 mg/mL and 0.0385 mg/mL | Threshold concentration causing precipitation ([2]; rat plasma): 52 µM | inhibition at 10 µM (5HT2A): -17% | inhibition at 10 µM (Dopamine D2 receptor): 28% | inhibition at 10 µM [3]: -29% | inhibition at 10 µM (Muscarinic receptor M1): 20% | inhibition at 10 µM (Xanthine oxidase): 6% | MIC 100% (C. albicans ATCC 90028; Study LGC281440): 64 µg/mL (≈ 86.5 µM) | MIC 100% (C. albicans ATCC 90028; Study LGC282160): >64 µg/mL | MIC 100% (C. albicans ATCC 90028; Study LGC284879): >64 µg/mL | MIC 100% (C. albicans ATCC 90028; Study LGC285582): >64 µg/mL | MIC 100% (C. albicans ATCC 90028; Study LGC286210): >64 µg/mL | MIC 100% (C. albicans ATCC 90028; Study LGC293598): >64 µg/mL | MIC 100% (C. albicans ATCC 90028; Study LGC294355): >64 µg/mL | MIC 100% (C. albicans ATCC 90028; Study LGC295147): >64 µg/mL | MIC 100% (C. albicans ATCC 90028; Study LGC296813): >64 µg/mL | MIC 100% (C. albicans ATCC 90028; Study LGC299544): >64 µg/mL | MIC 100% (C. albicans ATCC 90028; Study LGC301026): >64 µg/mL | MIC 100% (C. albicans ATCC 90028; Study LGC308175): >64 µg/mL | MIC 100% (C. albicans ATCC 90028; Study ROC010): >64 µg/mL | MIC 100% (C. albicans ATCC 90028; Study ROC012): >64 µg/mL

CN1C(=O)[C@H](CCCCN)NC(=O)[C@H](CCCN)NCc2cccnc2Sc2cccc(-c3ccc(C(=O)O)cc3)c2CNC(=O)[C@@H]1Cc1c[nH]c2ccccc12 [zosurabalpin]
RO7223280 MIC 100% (S. aureus ATCC 29213; Study LGC296813): >64 µg/mL | RO7223280 MIC 100% (S. aureus ATCC 29213; Study LGC299544): >64 µg/mL | RO7223280 MIC 100% (S. aureus ATCC 29213; Study LGC308175): >64 µg/mL | MIC (S. aureus ATCC 29213): > 64 µg/mL | MNT (Micronucleus test (MNT)): Negative | CYP inh. (2C9) (CYP2C9): >50 (3A4) >50 (2C9) >50 (2D6) μM | CYP inh. (2D6) (CYP2D6): >50 (3A4) >50 (2C9) >50 (2D6) μM | fu (m), fraction unbound in mouse plasma [1]: 37% | Threshold concentration for precipitation [2]: 1.76 mg/mL | inhibition at 10 µM (5HT2A): 3% | inhibition at 10 µM (Dopamine D2 receptor): 14% | inhibition at 10 µM [3]: 15% | inhibition at 10 µM (Muscarinic receptor M1): -3% | inhibition at 10 µM (Xanthine oxidase): 5% | RO7223280 MIC 100% (C. albicans ATCC 90028; Study LGC296813): >64 µg/mL | RO7223280 MIC 100% (C. albicans ATCC 90028; Study LGC299544): >64 µg/mL | RO7223280 MIC 100% (C. albicans ATCC 90028; Study LGC308175): >64 µg/mL
